Here are results for two substances from US20150273013A1, “AGONISTS OF GUANYLATE CYCLASE USEFUL FOR THE TREATMENT OF GASTROINTESTINAL DISORDERS, INFLAMMATION, CANCER AND OTHER DISORDERS” (Synergy Pharmaceuticals, Inc., priority 2014, published 2015).

Bridges are numbered along the chain shown (N, C = ends). Where no end group is shown, it is not given here. [ ]: non-standard residue; d: D form.

One experiment deals with colitis in murine models. The following applies: oral treatment, Shailubhai et al. 2009; cited from earlier work.
Experiment [1] has as its system non-inflammatory partial restraint stress induced hypersensitivity to colorectal distension (CRD). The experiment is described as follows: Partial restraint stress induced hypersensitivity to colorectal distension, oral treatment. It counts as in vivo, rat. The following applies: partial restraint stress model, oral doses of 0.01 and 0.05 mg/kg; for number of abdominal contractions in response to CRD: intracolonic distension pressures between 15 and 60 mm Hg. The method, then:
(§1) Oral Treatment with Plecanatide and Sp-333, Agonists of Guanylate Cyclase-C, Attenuates Visceral Hypersensitivity in Rat Models
(§2) Oral treatment with plecanatide (Asn Asp Glu Cys Glu Leu Cys Val Asn Val Ala Cys Thr Gly Cys Leu) or SP-333 (dAsn Asp Glu Cys Glu Leu Cys Val Asn Val Ala Cys Thr Gly Cys dLeu), homologues of UG, was evaluated in rodent models of inflammatory (TNBS) and non-inflammatory partial restraint stress induced hypersensitivity to colorectal distension (CRD).

Experiment [2] has as its system inflammatory (TNBS) induced hypersensitivity to colorectal distension (CRD). Description: TNBS (inflammatory) induced hypersensitivity to colorectal distension, oral treatment. It counts as in vivo, rat. Particulars: for colonic wall elasticity / number of abdominal contractions in response to CRD: TNBS model, oral doses of 0.01 and 0.05 mg/kg; for number of abdominal contractions in response to CRD: intracolonic distension pressures between 15 and 60 mm Hg; for colonic volume adaptation to increasing pressure: after TNBS instillation, pressures between 15 and 60 mm Hg. The method, then: as §1, §2

“dAsn Asp Glu Cys Glu Leu Cys Val Asn Val Ala Cys Thr Gly Cys dLeu ([dN]DECELCVNVACTGC[dL]; disulfide 4-12, 7-15) [SP-333, GC-C agonist, homologue of uroguanylin, (C4:C12, C7:C15) bicycle peptide]”: the effect on colitis entry in the experiment with colitis in murine models is listed as “ameliorate colitis”. Also, in experiment [1], the colonic wall elasticity result is recorded as “without significantly altering” and the “number of abdominal contractions in response to CRD” value (“number of abdominal contractions” below) is “effectively reduced”. In experiment [2], the colonic wall elasticity entry is “without significantly altering”, the “number of abdominal contractions” value was “effectively reduced” and the “colonic volume adaptation to increasing pressure” value was “reduced”.
As for “Asn Asp Glu Cys Glu Leu Cys Val Asn Val Ala Cys Thr Gly Cys Leu (NDECELCVNVACTGCL; disulfide 4-12, 7-15) [plecanatide, GC-C agonist, homologue of uroguanylin, (C4:C12, C7:C15) bicycle peptide]”, the effect on colitis entry in the experiment with colitis in murine models was “ameliorate colitis”. In experiment [1], the colonic wall elasticity result is “without significantly altering” and the “number of abdominal contractions” value is on record as “effectively reduced”. In experiment [2], the colonic wall elasticity result is reported as “without significantly altering”, the “number of abdominal contractions” value is on record as “effectively reduced” and the “colonic volume adaptation to increasing pressure” value is on record as “reduced”.
